The values that follow come from patent publication US5854067A, “Hexokinase inhibitors” (priority 1996, dated 1998).

The structures appear in SMILES notation. Read-outs that look alike come from different tables or passages of the source.

For assay [1], the system named is Glucokinase (GK, hexokinase IV). The settings on record: Table 1, GK, cited from earlier work.
The subject of assay [2] is Hexokinases I, II, and III (HK I-III, low Km hexokinases). The settings on record: Table 1, HK I-III, cited from earlier work.
In assay [3] the target is T1, native (wild type) islet glucokinase (Rattus norvegicus, UniProt P17712).
T1 construct: Plasmids containing DNA encoding either intact islet glucokinase; expressed in transfected cells; host or cells: 293 human embryonic kidney cells, transient transfection, crude extract
T1 sequence (P17712 1-465): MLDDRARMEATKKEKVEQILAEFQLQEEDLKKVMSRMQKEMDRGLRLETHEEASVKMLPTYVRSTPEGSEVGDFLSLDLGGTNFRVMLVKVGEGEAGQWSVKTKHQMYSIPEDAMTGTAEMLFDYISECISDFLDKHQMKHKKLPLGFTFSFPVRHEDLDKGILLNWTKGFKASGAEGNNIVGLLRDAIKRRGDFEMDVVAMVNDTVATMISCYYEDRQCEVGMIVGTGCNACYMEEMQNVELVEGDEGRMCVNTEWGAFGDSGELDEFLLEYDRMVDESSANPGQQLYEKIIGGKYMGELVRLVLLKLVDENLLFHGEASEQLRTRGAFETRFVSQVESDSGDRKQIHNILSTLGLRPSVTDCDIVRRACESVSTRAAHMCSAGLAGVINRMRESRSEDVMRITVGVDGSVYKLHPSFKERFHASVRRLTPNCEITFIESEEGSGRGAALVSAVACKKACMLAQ
Nature of the assay: Radioisotopic glucose phosphorylating activity assay in extracts of transiently transfected 293 cells, with and without G6P. It is filed as biochemical. The settings on record: 10 mM unlabeled G6P, 3 and 20 mM glucose, 293 cell extracts. The protocol:
Plasmids containing DNA encoding either intact islet glucokinase, hexokinase I or one of the two hexokinase/glucokinase chimeras were introduced into the human embryonic kidney cell line 293, using Ca2 PO4 co-precipitation. After incubation with the plasmid DNA, cells were cultured for an additional 48 hours.
Assays were performed at 3 and 20 mM glucose. At the lower glucose concentration, hexokinase activity is maximal while glucokinase activity is very low. […] The assay was also performed in the presence and absence of 10 mM unlabeled glucose-6-phosphate (G6P).

Consider `Nc1ncnc2c1ncn2[C@@H]1O[C@H](COP(=O)(O)OP(=O)(O)OP(=O)(O)O)[C@@H](O)[C@H]1O` [ATP], for which the Km in assay [1] (read-out: Km ATP) was 0.5 mM; in assay [2] (read-out: Km ATP) it was 200 to 500 µM. As for `O=P(O)(O)OC[C@H]1OC(O)[C@H](O)[C@@H](O)[C@@H]1O` (some centres unmarked) [G-6-P, glucose-6-phosphate], in assay [3], the “effect of glucose-6-phosphate on glucose phosphorylating activity” value is listed as “no significant effect”.

As to `OC[C@H]1OC(O)[C@H](O)[C@@H](O)[C@@H]1O` (some centres unmarked) [glucose], the values for the Michaelis-Menten constant (Km) in assay [1] (read-out: Km glucose) and in assay [2] (read-out: Km glucose) were 5 to 12 mM and 20 to 130 µM, respectively.
